{"source": "patent US6482850B2", "about": "“Hydrolysis-promoting hydrophobic taxane derivatives” (priority 1995, dated 2002)", "key": {"[1]": {"test_system": "OVCAR-3 human ovarian cancer", "assay": "i.p. OVCAR-3 tumor, i.v. treatment, survival (FIG. 6)", "format": "in vivo, mice", "method": "Mice were observed daily for mortality and % ILS was calculated as described above."}, "A549 human lung cancer": {"test_system": "A549 human lung cancer", "assay": "s.c. A549 tumor, i.v. treatment, tumor volume (FIG. 8)", "format": "in vivo, mice", "from_the_text": "Mice were sacrificed when the average tumor volume of the group reached 1500 mm^3."}}}
{"smiles": "CCCCCCCCCCCCCC[C@@H](Br)C(=O)O[C@@H](C(=O)O[C@H]1C[C@@]2(O)[C@@H](OC(=O)c3ccccc3)[C@@H]3[C@]4(OC(C)=O)CO[C@@H]4C[C@H](O)[C@@]3(C)C(=O)[C@H](OC(C)=O)C(=C1C)C2(C)C)[C@@H](NC(=O)c1ccccc1)c1ccccc1", "note": "[BrC16HT, 2′-(R)-[2-bromohexadecanoyl] paclitaxel]", "values": [{"measurement": "medium survival times", "setting": "[1]; 12.5 mg/kg i.v. on days 20, 22, 24, 26 & 28", "result": 182, "unit": "days"}, {"measurement": "survival time compared to controls", "setting": "[1]; 25 mg/kg i.v. on days 20, 22, 24, 26 & 28", "result": "significantly prolonged compared to controls (p<0.0001)"}, {"measurement": "survival time vs. control", "setting": "[1]; 12.5 or 25 mg/kg i.v. on days 1, 3, 5, 7, 9, 42, 44, 46, 48 & 50 (FIG. 6a)", "result": "significantly (p<0.05 vs. control) increased the survival time"}, {"measurement": "efficacy compared with Taxol®", "setting": "[1]; 12.5 or 25 mg/kg i.v., FIG. 6a schedule", "result": "more effective than Taxol®"}, {"measurement": "survival time vs. control", "setting": "[1]; i.v. on days 20, 22, 24, 26 & 28, BrC16HT 12.5 or 25 mg/kg, Taxol® 12.5 mg/kg (FIG. 6b)", "result": "significantly (p<0.05 vs. control) increased the survival time"}, {"measurement": "efficacy compared with Taxol® at 25 mg/kg", "setting": "A549 human lung cancer; all early treatment schedules (FIGS. 8a-c), BrC16HT at 12.5 or 25 mg/kg i.v.", "result": "more effective than Taxol® at 25 mg/kg"}, {"measurement": "tumor regression compared with Taxol®", "setting": "A549 human lung cancer; delayed schedule, days 20, 22, 24, 26 and 28, 25 mg/kg i.v. (FIG. 8d)", "result": "greater and more prolonged tumor regression"}, {"measurement": "tumor growth vs. control", "setting": "A549 human lung cancer; i.v., independent of the dose schedule, BrC16HT 12.5-25 mg/kg, Taxol® 25 mg/kg", "result": "significantly (p <0.05 vs. control) inhibited the tumor growth"}]}
